From patent publication US20240382626A1, “IRRADIATION AMENABLE LIPOSOMAL DYE AGGREGATES AND METHODS OF SYNTHESIS AND USE THEREOF” (Board of Regents, The University of Texas System, priority 2023, published 2024)
“Also recorded” adds a separate entry of the source.

Assays:
[1] = Photostability during pulsed-laser photoacoustic imaging; type: physicochemical
Protocol: All photoacoustic imaging was performed using the VEVO LAZR-X and F2 Systems (FUJIFILM VisualSonics, Toronto, Canada). The system was calibrated per manufacturer instructions prior to all experiments. Equal concentrations of IcG, IcG-JA, and L-JA were loaded into the plastic tubes before coupling the imaging phantom to the transducer with ultrasound gel. For base characterization, a full spectral scan from 680 nm to 970 nm was performed. Photostability measurements were obtained by imaging at either 800 nm or 890 nm for 30 minutes. At five-minute intervals, which equated to nearly every 1400 pulses (˜280 pulses per minute), the scan was paused to allow for a full spectral scan to be performed. RAW data files from the system were exported and were analyzed using custom software written in MATLAB.

HUVECs = test: MTS cytotoxicity assay; type: cell-based; settings: 24 hr incubation, p<0.05
Protocol: The cytotoxicity of L-JA, IcG-JA, and IcG was evaluated on HUVECs and HEK-293T cell lines. The HUVECs were cultured in MCDB-131 medium supplemented with 10% (v/v) fetal bovine serum, 1% L-glutamine, 1% penicillin-streptomycin, and 1% endothelial cell growth supplement. The HEK-293T cells were cultured in Dulbecco's modified Eagle medium (DMEM) supplemented with 10% (v/v) fetal bovine serum and 1% penicillin-streptomycin. Both cell lines were incubated at 37° C. with 5% CO2 in a humidified atmosphere. The HUVEC and HEK-293T cells were seeded at the density of 10,000 cells per well and 5,000 cells per well in 96 well plates. After 24 hours, the culture media was replaced with fresh media containing L-JA, IcG-JA, and IcG at the concentration of 0.25 mM, 0.2 mM, 0.1 mM, and 0.05 mM. Cells incubated without particles were used as a control group. After 24 hours, the culture media was replaced with […] of fresh media. 20 μl of a mixture of [3-(4,5-dimethylthiazol-2-yl)-5-(3-carboxymethoxyphenyl)-2-(4-sulfophenyl)-2H-tetrazolium] (MTS) and phenazine ethosulfate (PES) was then added to each well. The cells were further incubated for 4 hours at 37° C. The absorbance signal at 490 nm was measured using a BioTek plate reader.

[2] = In vitro photothermal heating with 808 nm and 852 nm lasers; settings: 808 nm laser
From the text: To assess the heating capacity of IcG and L-JA solutions, two different laser setups were utilized. All laser components including diodes, mounts, fiber optic cables, lens, and adapters were acquired from ThorLabs (Thorlabs Inc., Newton, NJ, USA) Two different laser diodes, one 808 nm the other 852 nm, were mounted, aligned, and focused in view of a high-resolution IR camera and tracked using accompanying software (Teledyne FLIR, Wilsonville, OR, USA). The 852 nm laser system included an optical isolator (ThorLabs) in the light path as recommended by the manufacturer, but otherwise the systems were identical. Laser power was calibrated to 1 W/cm^2 for both lasers and across all experiments. All experiments were conducted in 24- or 96-well plates filled with corresponding contrast agent solutions placed at the focus of the laser and IR camera.

[3] = tested on: mouse kidney and surrounding tissue; test: In vivo contrast enhancement and circulation by photoacoustic imaging; set-up: species or system mice; settings: systemic administration
From the text: Particle circulation was monitored by imaging the mouse kidney and surrounding tissue. The kidney is a high blood flow organ that has the distinct advantage of being easily and rapidly identifiable using ultrasound imaging. Simple setup and identification decreases the amount of time animals are under anesthesia and limits any potential artificial lowering of SO2 due to prolonged exposure to anesthetic agents. Once prepped, mice placed in the imaging system were imaged with power-doppler to confirm blood flow and baseline values for SO2 and contrast agent signals (FIG. 13). Following a bolus injection of a 5 mg/kg dose of contrast agent via the tail vein, the same region was monitored at varying time points. After processing with FUJIFILM VisualSonics' proprietary spectral unmixing software the images were analyzed using in-house MATLAB software. Power-doppler images guide the placement of ROIs around areas of high blood flow allowing isolation and calculation of SO2 and contrast agent signal over the course of imaging.
To assess their performance in vivo, particles were injected intravenously via the tail vein. Particle circulation was monitored by imaging the mouse kidney and surrounding tissue. […] Following a bolus injection of contrast agent via the tail vein, the same region was monitored at multiple time points. […]

time until PA signal fully quenches ([1]; 800 nm laser pulses): 25 min
photoacoustic signal drop ([1]; 800 nm laser pulses, just under 5 pulses per second, after just over 5 minutes / between 5 and 10 minutes): more than 50%
photodegradation (in words) ([1]; 30 minutes of imaging at 800 nm): completely photodegraded
Structure (SMILES): CC1(C)C(/C=C/C=C/C=C/C=C2\N(CCCCS(=O)(=O)O)c3ccc4ccccc4c3C2(C)C)=[N+](CCCCS(=O)(=O)[O-])c2ccc3ccccc3c21 [IcG, Indocyanine Green]
concentration at which significant cytotoxicity relative to control occurs (HUVECs): 200 µM
behaviour on repeated (cyclic) laser heating (in words) [2]: can only be heated once
clearance / circulation (in words) [3]: cleared from circulation within an hour; also recorded: fully cleared over the course of a few minutes
